Structures are written as SMILES.

Experimental findings from patent US8575158B2, “1-phenyl-substituted heterocyclyl derivatives and their use as prostaglandin D2 receptor modulators” (Actelion Pharmaceuticals Ltd., priority 2010, dated 2013) are described below.

This test has as its target T1, hCRTH2 receptor (Homo sapiens, UniProt Q9Y5Y4).
T1 construct: expressed in transfected cells; host or cells: HEK293
T1 sequence (Q9Y5Y4 1-395): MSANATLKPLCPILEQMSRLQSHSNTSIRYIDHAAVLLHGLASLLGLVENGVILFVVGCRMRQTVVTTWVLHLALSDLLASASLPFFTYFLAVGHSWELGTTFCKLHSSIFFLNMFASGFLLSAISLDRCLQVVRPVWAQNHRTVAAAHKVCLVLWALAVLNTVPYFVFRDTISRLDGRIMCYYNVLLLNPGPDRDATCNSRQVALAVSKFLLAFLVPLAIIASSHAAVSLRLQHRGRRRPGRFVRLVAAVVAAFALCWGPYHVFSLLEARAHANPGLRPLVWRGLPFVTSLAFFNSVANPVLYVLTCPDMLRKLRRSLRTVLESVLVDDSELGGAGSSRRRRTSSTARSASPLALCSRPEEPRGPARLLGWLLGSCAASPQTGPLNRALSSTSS
As to the kind of experiment: Radioligand displacement assay (3H-PGD2) on hCRTH2 receptor membranes. It counts as binding. The note with it: antagonistic activity, 3H-PGD2 radioligand displacement, HEK293-hCRTH2 membranes. (In general: Loss of bound radioactivity is the signal in a displacement assay; it reports binding, not function.)

Take `O=C(O)COc1ccc(Cl)cc1[C@@H]1c2ccc(F)c(F)c2CCN1C(=O)OCc1nccs1` [Example 299, (S)-1-(2-Carboxymethoxy-5-chloro-phenyl)-5,6-difluoro-3,4-dihydro-1H-isoquinoline-2-carboxylic acid thiazol-2-ylmethyl ester]: the IC50 (as a rule, the point on the concentration scale where inhibition reaches its midpoint) is 6.83 nM.

`Cc1ncsc1CCOC(=O)N1CCc2c(ccc(F)c2F)[C@H]1c1cc(Cl)ccc1OCC(=O)O` [Example 300, (S)-1-(2-Carboxymethoxy-5-chloro-phenyl)-5,6-difluoro-3,4-dihydro-1H-isoquinoline-2-carboxylic acid 2-(4-methyl-thiazol-5-yl)-ethyl ester] returned an IC50 of 6.39 nM.

Consider `Cc1cnc(COC(=O)N2CCc3c(ccc(F)c3F)[C@H]2c2cc(Cl)ccc2OCC(=O)O)s1` [Example 301, (S)-1-(2-Carboxymethoxy-5-chloro-phenyl)-5,6-difluoro-3,4-dihydro-1H-isoquinoline-2-carboxylic acid 5-methyl-thiazol-2-ylmethyl ester], for which the half-inhibitory concentration (IC50) was found to be 4.55 nM.

Take `Cc1csc(COC(=O)N2CCc3c(ccc(F)c3F)[C@H]2c2cc(Cl)ccc2OCC(=O)O)n1` [Example 302, (S)-1-(2-Carboxymethoxy-5-chloro-phenyl)-5,6-difluoro-3,4-dihydro-1H-isoquinoline-2-carboxylic acid 4-methyl-thiazol-2-ylmethyl ester]: the IC50 amounted to 5.7 nM. This IC50 and that of the molecule before are within 1.5-fold of each other.

For the molecule `Cc1ncc(COC(=O)N2CCc3c(ccc(F)c3F)[C@H]2c2cc(Cl)ccc2OCC(=O)O)s1` [Example 303, (S)-1-(2-Carboxymethoxy-5-chloro-phenyl)-5,6-difluoro-3,4-dihydro-1H-isoquinoline-2-carboxylic acid 2-methyl-thiazol-5-ylmethyl ester], the half-maximal inhibitory concentration (IC50) is 5.05 nM.

`Cc1nc(COC(=O)N2CCc3c(ccc(F)c3F)[C@H]2c2cc(Cl)ccc2OCC(=O)O)cs1` [Example 304, (S)-1-(2-Carboxymethoxy-5-chloro-phenyl)-5,6-difluoro-3,4-dihydro-1H-isoquinoline-2-carboxylic acid 2-methyl-thiazol-4-ylmethyl ester] displayed an IC50 of 5.39 nM.

On to `Cc1cc(COC(=O)N2CCc3c(ccc(F)c3F)[C@H]2c2cc(Cl)ccc2OCC(=O)O)on1` [Example 305, (S)-1-(2-Carboxymethoxy-5-chloro-phenyl)-5,6-difluoro-3,4-dihydro-1H-isoquinoline-2-carboxylic acid 3-methyl-isoxazol-5-ylmethyl ester], for which the 50% inhibitory concentration (IC50) amounted to 2.13 nM.

Regarding `Cc1conc1COC(=O)N1CCc2c(ccc(F)c2F)[C@H]1c1cc(Cl)ccc1OCC(=O)O` [Example 306, (S)-1-(2-Carboxymethoxy-5-chloro-phenyl)-5,6-difluoro-3,4-dihydro-1H-isoquinoline-2-carboxylic acid 4-methyl-isoxazol-3-ylmethyl ester], the half-inhibitory concentration (IC50) was 3.12 nM. The IC50 values of the last two molecules are within 1.5-fold of each other.

In turn, `Cc1noc(C)c1COC(=O)N1CCc2c(ccc(F)c2F)[C@H]1c1cc(Cl)ccc1OCC(=O)O` [Example 307, (S)-1-(2-Carboxymethoxy-5-chloro-phenyl)-5,6-difluoro-3,4-dihydro-1H-isoquinoline-2-carboxylic acid 3,5-dimethyl-isoxazol-4-ylmethyl ester] returned an IC50 of 3.34 nM.

As for `O=C(O)COc1ccc(Cl)cc1[C@@H]1c2ccc(F)c(F)c2CCN1C(=O)OCc1cnccn1` [Example 308, (S)-1-(2-Carboxymethoxy-5-chloro-phenyl)-5,6-difluoro-3,4-dihydro-1H-isoquinoline-2-carboxylic acid pyrazin-2-ylmethyl ester], the half-inhibitory concentration (IC50) turned out to be 1.69 nM.

`O=C(O)COc1ccc(Cl)cc1[C@@H]1c2ccc(F)c(F)c2CCN1C(=O)OCc1ccncn1` [Example 309, (S)-1-(2-Carboxymethoxy-5-chloro-phenyl)-5,6-difluoro-3,4-dihydro-1H-isoquinoline-2-carboxylic acid pyrimidin-4-ylmethyl ester] returned a half-maximal inhibitory concentration (IC50) of 4.77 nM.
